Experimental data published in US9394261B2, “Aryl amine substituted pyrimidine and quinazoline and their use as anticancer drugs” (National Yang-Ming University, priority 2012, dated 2016).
“Also recorded” adds a separate entry of the source.

Tests used:
[1] = tested on: SK-Hep-1 cell lines (a hepatocellular carcinoma (HCC) cell); assay: MTT assay, growth inhibition of SK-Hep-1 cells; assay type: cell-based; conditions: for IC50: SK-Hep-1 cells, 48 hours
Method: MTT assay was used to measure growth inhibition. […] MTT (3-(4,5-dimethylthiazol-2-yl)-2,5-diphenyl tetrazolium bromide) assay was performed as follow.
(§1) The effect of individual test compounds on cell viability was assessed by using the MTT in 6 replicates. Sk-Hep-1 cells were seeded and incubated in 96-well, flat-bottomed plates for 24 hours, and were exposed to various concentrations of test compounds dissolved in DMSO (final concentration, 0.1%) for 48 hours. Controls received DMSO vehicle at a concentration equal to that in drug-treated cells. The medium was removed, replaced by 200 μL of 0.5 mg/mL MTT in 10% fetal bovine serum containing DMEM (Dulbecco's Modified Eagle Medium), and cells were incubated in the carbon dioxide incubator at 37° C. for 2 hours. Supernatants were removed from the wells and the reduced MTT dye was solubilized in 100 μL/well DMSO. Absorbance at 570 nm was determined on a plate reader.
The SK-Hep1 cells were then analyzed with western blot assay and MTT assay.

p-Akt = assay: western blot of p-Akt in SK-Hep-1 cells; assay type: cell-based; conditions: for p-Akt level: SK-Hep-1 cells, 5 μM, 30 hours (FIG. 4A)
Method: (§2) Next, compounds […], 19, and 22 were used to explore whether downregulation of CIP2A lead to suppression of p-Akt. FIG. 4A is the western blot analysis of the effect of the compounds 4, 19, and 22 on phosphorylation of Akt, PARP and Actin. In this western blot analysis, SK-Hep-1 cells were respectively treated with compounds 4, 19, and 22 at a concentration of 5 μM for 30 hours. […] That is, compound 19 and 22 can substantially increase apoptotic cell death to inhibit cancer growth.
In other words, in the present of okadaic acid, the activation of PP2A by compound 19-incuced CIP2A inactivation is blocked.

CIP2A [2] = assay: western blot of CIP2A expression in SK-Hep1 cells; assay type: cell-based; conditions: SK-Hep-1 cells; for inhibiting CIP2A expression: 5 μM, 30 hours (FIG. 4A)
Method: Accordingly, the pyrimidine and quinazoline derivatives above were screened by using western blot analysis for expression of CIP2A in SK-Hep1 cells. Before the western blot analysis, the SK-Hep-1 cells were maintained in DMEM supplemented with 10% FBS, 100 units/mL penicillin G, 100 μg/mL streptomycin sulfate and 25 μg/mL amphotericin B in a 37° C. humidified incubator in an atmosphere of 5% CO2 in air. In this western blot analysis, SK-Hep1 cells were respectively treated with compounds 1-24 at a concentration of 20 μM for 24 hours. In FIG. 2, the mono-substituted pyrimidine derivatives (compounds 1-5) have no appreciable change in CIP2A expression.
Cell viability, measured by MTT assay, and CIP2A expressions, analyzed by western blot, in response to compound 19 or erlotinib treatment in SK-Hep1 cell line were analyzed. SK-Hep-1 cells were treated with erlotinib and compound 19 at 2.5 and 5 μM for 24 h, respectively. The SK-Hep1 cells were then analyzed with western blot assay and MTT assay.
as §2

PARP [3] = assay: western blot of PARP cleavage in SK-Hep-1 cells; assay type: cell-based; conditions: 5 μM, 30 hours (FIG. 4A)
Method: as §2

PLC5 xenograft tumor = PLC5 xenograft tumor growth in nude mice; conditions: erlotinib 50 mg/kg/day; for effect on PLC5 tumor growth, in words: p.o. daily for 3 weeks, compounds 20 mg/kg/day (FIG. 6A-6B); for tumor inhibition, PLC5 cell: p.o. daily, after 21 days of treatment, compounds 8 and 19 20 mg/kg/day
Method: (§6) The mice were housed in groups and maintained under standard laboratory conditions on a 12-hour light-dark cycle. They were given access to sterilized food and water ad libitum. All experimental procedures using these mice were performed in accordance with protocols approved by the Institutional Laboratory Animal Care and Use Committee of National Taiwan University. Each mouse was inoculated s.c. in the dorsal flank with 1×10^6 HCC cells suspended in 0.1 ml of serum-free medium containing 50% Matrigel (BD Biosciences, Bedford, Mass.). […] Controls received vehicle.
(§7) Tumor growth data points are reported as mean tumor volume±SE.

Huh-7 xenograft tumor = Huh-7 xenograft tumor growth in nude mice; conditions: erlotinib 50 mg/kg/day; for effect on Huh-7 tumor growth, in words: p.o. daily for 3 weeks, compounds 20 mg/kg/day (FIG. 7A-7B); for tumor inhibition, Huh7 cell: p.o. daily, after 21 days of treatment, compounds 8 and 19 20 mg/kg/day
Method: as §6, §7

EGFR [4] = biological target: EGFR (Homo sapiens, UniProt P00533); assay: western blot of EGFR phosphorylation in H358 cells; conditions: 1 and 5 μM, 24 hours (FIG. 1C)
Chain of EGFR (Homo sapiens, UniProt P00533) (P00533 25-1210): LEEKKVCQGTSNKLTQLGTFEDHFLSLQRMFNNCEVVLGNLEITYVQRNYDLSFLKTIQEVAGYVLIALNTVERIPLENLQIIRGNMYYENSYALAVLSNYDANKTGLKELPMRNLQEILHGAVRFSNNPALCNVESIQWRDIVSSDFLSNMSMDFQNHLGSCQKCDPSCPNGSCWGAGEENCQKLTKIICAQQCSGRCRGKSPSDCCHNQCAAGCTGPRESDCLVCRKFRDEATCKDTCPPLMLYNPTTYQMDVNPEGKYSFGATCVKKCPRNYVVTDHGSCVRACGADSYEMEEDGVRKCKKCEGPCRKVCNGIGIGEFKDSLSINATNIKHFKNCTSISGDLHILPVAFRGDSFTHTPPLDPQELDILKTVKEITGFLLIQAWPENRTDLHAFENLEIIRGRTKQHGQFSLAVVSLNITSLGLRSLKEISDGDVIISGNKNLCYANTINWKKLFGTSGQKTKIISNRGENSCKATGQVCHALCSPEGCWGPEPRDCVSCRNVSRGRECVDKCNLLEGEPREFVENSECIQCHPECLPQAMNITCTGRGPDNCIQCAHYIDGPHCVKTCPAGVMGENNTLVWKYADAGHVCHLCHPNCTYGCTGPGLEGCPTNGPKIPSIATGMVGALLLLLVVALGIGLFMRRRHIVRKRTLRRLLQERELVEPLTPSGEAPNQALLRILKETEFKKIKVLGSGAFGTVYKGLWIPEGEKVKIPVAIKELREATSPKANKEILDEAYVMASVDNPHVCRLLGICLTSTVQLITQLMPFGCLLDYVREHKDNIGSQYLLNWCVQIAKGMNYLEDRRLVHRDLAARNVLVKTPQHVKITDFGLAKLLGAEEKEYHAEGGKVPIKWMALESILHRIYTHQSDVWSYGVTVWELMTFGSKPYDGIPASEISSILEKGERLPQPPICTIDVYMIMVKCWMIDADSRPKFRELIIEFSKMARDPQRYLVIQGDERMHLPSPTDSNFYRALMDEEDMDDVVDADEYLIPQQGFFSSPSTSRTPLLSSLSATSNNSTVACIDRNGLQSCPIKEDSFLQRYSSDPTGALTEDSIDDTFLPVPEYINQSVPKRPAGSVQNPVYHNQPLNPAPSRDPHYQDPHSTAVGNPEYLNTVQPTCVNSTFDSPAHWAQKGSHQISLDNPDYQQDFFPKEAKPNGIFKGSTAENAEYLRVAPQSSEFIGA

EGFR [5] = biological target: T1, EGFR (Homo sapiens, UniProt P00533, DEL746-750); assay: western blot of EGFR phosphorylation in PC9 cells; assay type: cell-based; conditions: for EGFR phosphorylation inhibition (western blot): PC9 cells, 2 μM, 24 h (FIG. 3A)
T1 construct: endogenous in cells; host or cells: PC9 cells
T1 sequence (P00533 with tags, fused parts or gaps DEL746-750): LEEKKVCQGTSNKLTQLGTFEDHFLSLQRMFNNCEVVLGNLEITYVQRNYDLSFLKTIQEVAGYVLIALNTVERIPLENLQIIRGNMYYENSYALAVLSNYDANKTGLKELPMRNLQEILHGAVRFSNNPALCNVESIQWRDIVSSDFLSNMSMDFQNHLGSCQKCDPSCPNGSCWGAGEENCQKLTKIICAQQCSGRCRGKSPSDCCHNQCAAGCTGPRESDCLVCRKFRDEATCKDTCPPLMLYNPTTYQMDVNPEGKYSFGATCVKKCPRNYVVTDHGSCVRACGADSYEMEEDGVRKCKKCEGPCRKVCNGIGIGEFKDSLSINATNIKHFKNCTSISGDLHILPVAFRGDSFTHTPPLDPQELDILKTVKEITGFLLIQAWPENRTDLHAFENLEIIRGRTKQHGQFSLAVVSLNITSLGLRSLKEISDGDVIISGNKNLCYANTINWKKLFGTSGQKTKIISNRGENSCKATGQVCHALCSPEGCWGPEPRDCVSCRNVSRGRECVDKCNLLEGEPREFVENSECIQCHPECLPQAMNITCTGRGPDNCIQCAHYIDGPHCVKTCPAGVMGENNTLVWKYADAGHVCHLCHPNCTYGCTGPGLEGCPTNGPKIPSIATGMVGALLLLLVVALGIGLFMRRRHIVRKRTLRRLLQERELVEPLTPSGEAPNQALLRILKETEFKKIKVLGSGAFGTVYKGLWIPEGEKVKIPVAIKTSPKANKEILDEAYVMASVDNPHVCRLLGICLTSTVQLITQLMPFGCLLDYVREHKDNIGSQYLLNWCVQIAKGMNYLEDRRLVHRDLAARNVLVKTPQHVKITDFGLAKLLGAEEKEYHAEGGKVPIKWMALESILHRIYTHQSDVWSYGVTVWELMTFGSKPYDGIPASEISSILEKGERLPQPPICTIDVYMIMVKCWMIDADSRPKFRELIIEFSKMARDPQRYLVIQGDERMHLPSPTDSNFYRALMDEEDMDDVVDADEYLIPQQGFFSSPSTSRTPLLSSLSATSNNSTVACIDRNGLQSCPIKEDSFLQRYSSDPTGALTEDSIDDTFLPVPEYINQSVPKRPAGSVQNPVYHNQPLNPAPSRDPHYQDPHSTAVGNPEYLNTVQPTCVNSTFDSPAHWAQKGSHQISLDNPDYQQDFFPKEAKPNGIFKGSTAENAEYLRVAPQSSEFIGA
Method: 40 μg/per lane of cell lysates were analyzed by western blot. The antibodies of actin, EGFR, and p-EGFR were from Cell Signaling (Danvers, Mass.). In FIGS. 1A-1B, actin lines are used to show an internal standard for the loading control in this western blot.

PARP [6] = assay: western blot of PARP cleavage in H358, H460 and H322 lung cancer cells; assay type: cell-based; conditions: 5 μM (FIG. 3C)
Method: (§3) Similarly, CIP2A expressions analyzed by western blot were also performed for lung cancer cells, H358, H460, and H322 cell lines. Moreover, drug-induced apoptotic cell death was also assessed by western blot analysis of activated caspases cleaved poly(ADP-ribose)polymerase (PARP). The cleavage of PARP is explained as follow. The compound induces apoptotic signal which cleave the procaspase 3 to the active caspase 3. The activation of caspase 3 further cleaves PARP and inactivate PAPR function. The events are thought to be required in late apoptosis. Therefore, the PARP cleavage is an indicator of apoptosis.
(§4) In the PARP row of FIG. 3C, the upper bands represented the uncleavage PARP, and the middle band and lower band represented cleavage PARP.

SK-Hep-1 cells = assay: apoptotic cell death by flow cytometry (sub-G1) and cell death detection ELISA; assay type: cell-based; conditions: 2.5 and 5 μM, 24 h (FIG. 4B-4C)
Method: FIG. 4B is flow cytometry analysis of cell death induced by compounds 4, 19, and 22 at 5 μM, after 24 h of treatment in SK-Hep-1 cells. The apoptotic cells were assessed by flow cytometry (sub-G1). After Sk-Hep-1 cells were treated with compounds 4, 19, and 22, Sk-Hep-1 cells were trypsinized, collected by centrifugation and resuspended in PBS. After centrifugation, the cells were washed in PBS and resuspended in […] (PI) staining solution. Specimens were incubated in the dark for 30 min at 37° C. and then analyzed with an EPICS Profile II flow cytometer (Coulter Corp., Hialeah, Fla.). All experiments were performed in triplicate
FIG. 4C is ELISA analysis of cell death to analyze effects of compounds 4, 19, and 22 on DNA fragmentation in SK-Hep-1 cells. The effect of compounds 4, 19 and 22 on cell viability was assessed by a cell death detection ELISA kit (Roche Applied Science, Mannheim, Germany). SK-Hep-1 cells were treated with compounds 4 and 19 at 22 at 2.5 and 5 μM for 24 h. The cells were collected and assayed according to the standard protocol provided by the manufacturer.

[7] = tested on: SK-Hep-1 cell lines (a hepatocellular carcinoma (HCC) cell); assay: MTT assay, growth inhibition of SK-Hep-1 cells; assay type: cell-based; conditions: 2.5 and 5 μM, 24 h (FIG. 3B)
Hep3B cell lines = assay: MTT assay, growth inhibition of Hep3B cells; assay type: cell-based; conditions: Homo sapiens
Method: as §1
(§5) Next, compounds 19, and 34-36 were screened against a panel of Hep3B cell lines for growth-inhibitory activities. […] Compounds 87-90, 95 and 96 were screened against a panel of PLC5 cell lines for growth-inhibitory activities.

CIP2A [8] = assay: western blot of CIP2A expression in H358, H460 and H322 lung cancer cells; assay type: cell-based; conditions: 5 μM (FIG. 3C)
Method: as §3, §4

CIP2A [9] = assay: western blot of CIP2A expression in PLC/PRF/5 cells; assay type: cell-based; conditions: 10 μM, 48 hours (FIG. 8)
Method: PLC/PRF/5 cells were exposed to compounds 88, 95 and 96 at various doses (5 and 10 μM) for 48 hours. Total lysates were subjected to CIP2A protein analysis by western blot. Actin was used as a loading control.

PLC5 cell lines = assay: MTT assay, growth inhibition of PLC5 cells; assay type: cell-based
Method: as §1, §5

In the case of `Clc1nccc(Nc2ccc(Oc3ccccc3)cc2)n1` [Compound 4, 2-Chloro-N-(4-phenoxyphenyl)pyrimidin-4-amine], the IC50 ([1]; Homo sapiens, SK-HEP1, 48 h) is reported as greater than 40 µM, the “growth-inhibitory activity (MTT), in words” value ([1]; SK-Hep-1 (HCC) cells) is reported as “no activity in either assay” and the p-Akt level (p-Akt) is reported as “no activity”. For the same compound, the “inhibiting CIP2A expression” value (CIP2A [2]) was “no activity” and the PARP cleavage (PARP [3]) was “no activity”.
In the case of `C#Cc1cccc(Nc2nc(Cl)nc3cc(OC)c(OC)cc23)c1` [Compound 8, 2-Chloro-N-(3-ethynylphenyl)-6,7-dimethoxyquinazoline-4-amine], the IC50 ([1]; Homo sapiens, SK-HEP1, 48 h) is reported as less than 10 µM, the “effect on PLC5 tumor growth, in words” value (PLC5 xenograft tumor) is reported as “significantly reduced the growth of tumor” and the “tumor inhibition, PLC5 cell” value (PLC5 xenograft tumor) is reported as 45.7%. The “effect on Huh-7 tumor growth, in words” value (Huh-7 xenograft tumor) was “better inhibitory effect on Huh-7 tumors than erlotinib”, the “tumor inhibition, Huh7 cell” value (Huh-7 xenograft tumor) was 40.3% and the “EGFR phosphorylation inhibition (western blot)” value (“EGFR phosphorylation inhibition” below) (EGFR [4]) was “devoid of EGFR kinase inhibition”. For the same compound, the “EGFR kinase inhibition (p-EGFR western blot)” value (EGFR [5]; PC9 cells, 0.5, 1, 2, 4, and 8 μM, 24 hours (FIG. 1A-1B)) was “devoid of EGFR kinase inhibition”.
`C#Cc1cccc(Nc2nc(Nc3ccc(Oc4ccccc4)cc3)nc3cc(OC)c(OC)cc23)c1` [Compound 19, N^4-(3-Ethynylphenyl)-6,7-dimethoxy-N^2-(4-phenoxyphenyl)quinazoline-2,4-diamine] was tested, and the PARP cleavage (PARP [6]) was “induce the cleavage of PARP”, the IC50 [1] was 2.8 µM and the “effect on PLC5 tumor growth, in words” value (PLC5 xenograft tumor) was “significantly reduced the growth of tumor; also recorded: better inhibitory effect on PLC5 tumors than erlotinib; also recorded: significantly reducing the growth of tumor”. For the same compound, the “tumor inhibition, PLC5 cell” value (PLC5 xenograft tumor) was 60.6%, the p-Akt level (p-Akt) was “reducing p-Akt level; also recorded: reduced Akt phosphorylation” and the “effect on Huh-7 tumor growth, in words” value (Huh-7 xenograft tumor) was “better inhibitory effect on Huh-7 tumors than erlotinib”. For the same compound, the “tumor inhibition, Huh7 cell” value (Huh-7 xenograft tumor) was 34.8%, the “cell apoptosis (sub-G1 flow cytometry, DNA fragmentation ELISA)” value (SK-Hep-1 cells) was “induced cell apoptosis” and the “cell viability (MTT)” value [7] was “reduce the CIP2A expression and the cell viability in a dosage dependent manner”. The “inhibiting CIP2A expression” value (CIP2A [2]) was “inhibiting CIP2A expression; also recorded: most potent inhibition of CIP2A expression”, the CIP2A expression (CIP2A [2]; 2.5 and 5 μM, 24 h (FIG. 3B)) was “reduce the CIP2A expression” and the PARP cleavage (PARP [3]) was “inducing PARP cleavage”. The IC50 (Hep3B cell lines) was 1.28 µM, the “EGFR phosphorylation inhibition” value (EGFR [5]) was “no inhibitory effect on EGFR kinase” and the CIP2A expression (CIP2A [8]) was “down-regulate the expression of CIP2A”.
`C#Cc1cccc(Nc2nc(NCc3ccccc3)nc3cc(OC)c(OC)cc23)c1` [Compound 22, N^2-Benzyl-N^4-(3-ethynylphenyl)-6,7-dimethoxy quinazoline-2,4-diamine] was tested, and the IC50 [1] was 2.8 µM, the “effect on PLC5 tumor growth, in words” value (PLC5 xenograft tumor) was “significantly reducing the growth of tumor” and the p-Akt level (p-Akt) was “reducing p-Akt level; also recorded: reduced Akt phosphorylation”. For the same compound, the “cell apoptosis (sub-G1 flow cytometry, DNA fragmentation ELISA)” value (SK-Hep-1 cells) was “induced cell apoptosis”, the “inhibiting CIP2A expression” value (CIP2A [2]) was “inhibiting CIP2A expression; also recorded: most potent inhibition of CIP2A expression” and the PARP cleavage (PARP [3]) was “inducing PARP cleavage”. The “EGFR phosphorylation inhibition” value (EGFR [5]) was “no inhibitory effect on EGFR kinase”.
`C#Cc1cccc(Nc2nc(Nc3ccc(Cl)c(Oc4ccc(C#N)c(Cl)c4)c3)nc3cc(OC)c(OC)cc23)c1` [Compound 88, 2-chloro-4-(2-chloro-5-((4-((3-ethynylphenyl)amino)-6,7-dimethoxyquinazolin-2-yl)amino)phenoxy)benzonitrile] was tested, and the “inhibition of CIP2A expression” value (CIP2A [9]) was “high degree of repression of CIP2A” and the IC50 (PLC5 cell lines; PLC5, PLC5 cells) was 12.7 µM.
With `C#Cc1cccc(Nc2nc(Nc3ccc(Oc4ccc(Cl)c(Cl)c4)cc3)nc3cc(OC)c(OC)cc23)c1` [Compound 95, N^2-(4-(3,4-dichlorophenoxyl)phenyl)-N^4-(3-ethynylphenyl)-6,7-dimethoxyquinazoline-2,4-diamine] the “inhibition of CIP2A expression” value (CIP2A [9]) was “high degree of repression of CIP2A” and the IC50 (PLC5 cell lines; PLC5 cells) was 0.95 µM.
With `C=C1[C@@H](O)[C@@H]2O[C@]3(CC[C@H](/C=C/[C@@H](C)[C@@H]4CC(C)=C[C@@]5(O[C@H](C[C@@](C)(O)C(=O)O)CC[C@H]5O)O4)O3)CC[C@H]2O[C@@H]1[C@@H](O)C[C@H](C)[C@H]1O[C@@]2(CCCCO2)CC[C@H]1C` [okadaic acid, reference compound] the “p-Akt level in compound 19 treated cells” value (p-Akt; SK-Hep-1 cells treated with compound 19 (FIG. 5B)) was “reversed p-Akt level”.
